Experiments:
[1] = target: T1, Human immunodeficiency virus type 1 integrase (Human immunodeficiency virus 1, UniProt Q7ZJM1); assay: Inhibition of HIV-1 integrase-mediated 3'-processing
[2] = target: T1, Human immunodeficiency virus type 1 integrase; assay: Inhibition of HIV-1 integrase-mediated strand transfer

T1 sequence (Q7ZJM1 whole entry): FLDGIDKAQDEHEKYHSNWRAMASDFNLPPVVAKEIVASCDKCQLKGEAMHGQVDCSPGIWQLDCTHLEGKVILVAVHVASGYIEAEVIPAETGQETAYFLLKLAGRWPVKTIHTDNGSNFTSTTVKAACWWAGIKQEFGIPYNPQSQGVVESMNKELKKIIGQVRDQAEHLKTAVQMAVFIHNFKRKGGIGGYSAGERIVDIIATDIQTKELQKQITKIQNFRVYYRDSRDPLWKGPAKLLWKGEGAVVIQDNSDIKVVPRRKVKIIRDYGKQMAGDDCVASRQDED

Row | Structure (SMILES) | IC50 [1] [µM] | IC50 [2] [µM]
1 | O=C(CCc1ccc(O)cc1)NCCc1cccc(O)c1 | > 350 | 
2 | COC(=O)c1ccc2c(O)c(O)ccc2c1 | 58.4 | 52.7
3 | O=C(CCc1ccc(O)cc1)NCCCNC(=O)CCc1ccc(O)cc1 | > 200 | > 200
4 | O=C(CCc1cc(O)cc(O)c1)NCCc1ccc(O)c(O)c1 | > 350 | 
5 | O=C(CCc1ccc(O)c(O)c1)NCCc1ccc(O)c(O)c1 | 33 | 
6 | O=C(CCc1cccc(O)c1)NCCc1cccc(O)c1 | > 350 | 
7 | O=C(NCCCNC(=O)c1ccc2c(O)c(O)ccc2c1)c1ccc2c(O)c(O)ccc2c1 | 0.23 | 0.11
8 | O=C(CCc1cccc(O)c1)NCCc1ccc(O)cc1 | > 350 | 
9 | O=C(CCc1cc(O)cc(O)c1)NCCc1cc(O)cc(O)c1 | > 350 | 
10 | COc1ccc2cc(C(=O)NCCCNC(=O)c3ccc4cc(OC)ccc4c3)ccc2c1 | > 200 | > 200
11 | COc1ccc2cc(C(=O)NCCCNC(=O)c3ccc4c(OC)c(OC)ccc4c3)ccc2c1OC | > 200 | > 200
12 | O=C(NCCCNC(=O)c1ccc2cc(O)c(O)cc2c1)c1ccc2cc(O)c(O)cc2c1 | 0.98 | 0.81
13 | O=C(O)c1ccc2c(O)c(O)ccc2c1 | 53.3 | 62.4
14 | O=C(CCc1cccc(O)c1)NCCCNC(=O)CCc1cccc(O)c1 | > 200 | > 200
15 | O=C(O)c1ccc2cc(O)c(O)cc2c1 | 5.4 | 4.7
16 | O=C(CCc1ccc(O)cc1)NCCc1ccc(O)cc1 | > 350 | 
17 | COc1cc2ccc(C(=O)NCCCNC(=O)c3ccc4cc(OC)c(OC)cc4c3)cc2cc1OC | > 200 | > 200
18 | O=C(NCCCNC(=O)c1ccc2cc(O)ccc2c1)c1ccc2cc(O)ccc2c1 | > 200 | > 200
19 | O=C(O)c1ccc2cc(O)ccc2c1 | 172 | 172
20 | O=C(CCc1cc(O)cc(O)c1)NCCCNC(=O)CCc1cc(O)cc(O)c1 | > 200 | > 200
21 | COC(=O)c1ccc2cc(O)c(O)cc2c1 | > 200 | > 200
22 | COC(=O)c1ccc2cc(O)ccc2c1 | > 200 | > 200
23 | O=C(CCc1ccc(O)c(O)c1)NCCc1cc(O)cc(O)c1 | > 350 | 

From ChEMBL document CHEMBL1129992, “Arylamide inhibitors of HIV-1 integrase” (J Med Chem, 1997)
